# According to patent publication US20080171740A1, “Chemical Compounds” (SMITHKLINE BEECHAM CORPORATION, priority 2004, published 2008):
# Read-outs that look alike come from different tables or passages of the source.
# What was measured:
# Format in all cases: cell-based
# [1] = tested on: HIV-1 IIIB strain, T-tropic (CXCR4 utilizing); test: HOS HIV-1 infectivity assay
# Description: (§1) Compounds were profiled against two HIV-1 viruses, the M-tropic (CCR5 utilizing) Ba-L strain and the T-tropic (CXCR4 utilizing) IIIB strain. Both viruses were propagated in human peripheral blood lymphocytes. Compounds were tested for there ability to block infection of the HOS cell line (expressing hCXCR4/hCCR5/hCD4/pHIV-LTR-luciferase) by either HIV-1 Ba-L or HIV-1 IIIB. Compound cytotoxicity was also examined in the absence of virus addition.
# (§2) HOS cells (expressing hCXCR4/hCCR5/hCD4/pHIV-LTR-luciferase) were harvested and diluted in Dulbeccos modified Eagles media supplemented with 2% FCS and non-essential amino acid to a concentration of 60,000 cells/ml. The cells were plated into 96-well plates (100 ul per well) and the plates were placed in a tissue culture incubator (37° C.; 5% CO2/95% air) for a period of 24 h.
# (§3) Subsequently, 50 ul of the desired drug solution (4 times the final concentration) was added to each well and the plates were returned to the tissue culture incubator (37° C.; 5% CO2/95% air) for 1 h. Following this incubation 50 ul of diluted virus was added to each well (approximately 2 million RLU per well of virus). The plates were returned to the tissue culture incubator (37° C.; 5% CO2/95% air) and were incubated for a further 96 h.
# (§4) Following this incubation the endpoint for the virally infected cultures was quantified following addition of Steady-Glo Luciferase assay system reagent (Promega, Madison, Wis.). Cell viability or non-infected cultures was measured using a CellTiter-Glo luminescent cell viability assay system (Promega, Madison, Wis.). All luminescent readouts are performed on a Topcount luminescence detector (Packard, Meridien, Conn.).
# CXCR4 receptor = target: T1, CXCR4 receptor (Homo sapiens, UniProt P61073); test: Functional FLIPR assay (block of SDF-1 alpha induced [Ca2+]i change); conditions: HEK-293 cells with human CXCR4 BacMam and Gqi5 BacMam; antagonism of SDF-1 alpha; read-out: Functional assay (pIC50) (converted)
# T1 construct: expressed in transfected cells; host or cells: HEK-293 cells (stably expressing human macrophage scavenging receptor) transduced with human CXCR4 BacMam and Gqi5 BacMam
# Description: Human embryonic kidney (HEK-293) cells were maintained and harvested as described above. Cells were plated in 96-well, black clear bottom, poly-lysine coated plates at a concentration of 40,000 cells per well in a final volume of 100 ul containing human CXCR4 BacMam (MOI=25) and Gqi5 BacMam (MOI=12.5). The cells were incubated at 37° C., 5% CO2, 95% humidity for 24 h to allow for protein expression.
# After the required incubation time the cells were washed once with 50 ul of fresh serum-free DMEM/F12 media containing probenicid. 50 ul of dye solution was then added to the cells (Calcium Plus Assay Kit Dye; Molecular Devices) was dissolved in 200 ml of the above probenicid/BSA containing media and incubated for 1 h. Cell plates were transferred to a Fluorometric Imaging Plate Reader (FLIPR). Upon addition the effect of the compounds on the change in [Ca^2+]i was examined to determine if the compounds were agonists or antagonists (ability to block SDF-1 alpha activity) at the CXCR4 receptor. IC50 values are determined and pKb values are calculated using the Leff and Dougall equation: KB=IC50/((2+([agonist]/EC50̂b)̂1/b -1) Where IC50 is that defined by the antagonist concentration-response curve [agonist] is the EC80 concentration of agonist used EC50 is that defined by the agonist concentration-response curve b is the slope of the agonist concentration-response curve.
# [2] = tested on: HIV-1 gp160 (HXB2 strain) mediated fusion with HOS (hCXCR4/hCCR5/hCD4/pHIV-LTR-luciferase) cells; test: Cell/cell fusion assay (HEK-293 expressing HIV-1 tat, rev, gp160 with HOS hCXCR4/hCCR5/hCD4/pHIV-LTR-luciferase cells); conditions: Homo sapiens, HEK293; luciferase readout after 24 h; read-out: Fusion assay (pIC50) (converted)
# Excerpt: The complete coding sequences of HIV-1 tat (GenBank Accession No. X07861) and rev (GenBank Accession No. M34378) were cloned into pcDNA3.1 expression vectors containing G418 and hygromycin resistance genes, respectively. The complete coding sequence of the HIV-1 (HXB2 strain) gp160 envelope gene (nucleotide bases 6225-8795 of GenBank Accession No. K03455) was cloned into plasmid pCRII-TOPO. The three HIV genes were additionally inserted into the baculovirus shuttle vector, pFastBacMam1, under the transcriptional control of the CMV promoter. A construction of the pHIV-I LTR containing mutated NFkB sequences linked to the luciferase reporter gene was prepared by digesting pcDNA3.1, containing the G418 resistance gene, with Nru I and Bam HI to remove the CMV promoter. LTR-luc was then cloned into the Nru I/Bam HI sites of the plasmid vector. Plasmid preparations were performed after the plasmids were amplified in Escherichia coli strain DH5-alpha. The fidelity of the inserted sequences was confirmed by double-strand nucleotide sequencing using an ABI Prism Model 377 automated sequencer.
# Recombinant BacMam baculoviruses were constructed from pFastBacMam shuttle plasmids by using the bacterial cell-based Bac-to-Bac system. Viruses were propagated in Sf9 (Spodoptera frugiperda) cells cultured in Hink's TNM-FH Insect media supplemented with 10% (v/v) fetal bovine serum and 0.1% (v/v) pluronic F-68 according to established protocols.
# Human osteosarcoma (HOS) cells that naturally express human CXCR4 were transfected with human CCR5, human CD4 and the pHIV-LTR-luciferase plasmid using FuGENE 6 transfection reagent. Single cells were isolated and grown under selection condition in order to generate a stable HOS (hCXCR4/hCCR5/hCD4/pHIV-LTR-luciferase) clonal cell line. The cells were maintained in Dulbeccos modified Eagles media supplemented with 10% fetal calf serum (FCS), G418 (400 ug/ml), puromycin (1 ug/ml), mycophenolic acid (40 ug/ml), xanthine (250 ug/ml) and hypoxanthine (13.5 ug/ml) to maintain a selection pressure for cells expressing the LTR-luciferase, hCCR5 and hCD4, respectively. Human embryonic kidney (HEK-293) cells stably transfected to express the human macrophage scavenging receptor (Class A, type 1; GenBank Accession No. D90187), were maintained in DMEM/F-12 media (1:1) supplemented with 10% FCS and 1.5 ug/ml puromycin. The expression of this receptor by the HEK-293 cells enhances their ability to stick to tissue culture treated plasticware.
# HEK-293 cells were harvested using enzyme-free cell dissociation buffer. The cells were resuspended in DMEM/F-12 media supplemented with 10% FCS and 1.5 ug/ml and counted. Tranductions were performed by direct addition of BacMam baculovirus containing insect cell media to cells. The cells were simultaneously transduced with BacMam baculovirus expressing HIV-1 tat, HIV-1 rev and HIV-1 gp160 (from the HXB2 HIV strain). Routinely an MOI of 10 of each virus was added to the media containing the cells. 2 mM butyric acid was also added to the cells at this stage to increase protein expression in transduced cells. The cells were subsequently mixed and seeded into a flask at 30 million cells per T225. The cells were incubated at 37° C., 5% CO2, 95% humidity for 24 h to allow for protein expression.
# HEK and HOS cells were harvested in DMEM/F-12 media containing 2% FCS and DMEM media containing 2% FCS, respectively, with no selection agents added. Compounds were plated as 1 ul spots in 100% DMSO on a 96-well CulturPlate plates. HOS cells (50 ul) were added first to the wells, followed immediately by the HEK cells (50 ul). The final concentration of each cell type was 20,000 cells per well. Following these additions, the cells were returned to a tissue culture incubator (37° C.; 5% CO2/95% air) for an additional 24 h.
# Following the 24 h incubation, total cellular luciferase activity was measured using the LucLite Plus assay kit (Packard, Meridien, Conn.). […]
# [3] = Compound cytotoxicity in the absence of virus (CellTiter-Glo); conditions: human; non-infected HOS cultures, cell viability; read-out: Cytotox (pIC50) (converted)
# Description: as §1, §2, §3, §4
# [4] = Human immunodeficiency virus 1, IIIB, HOS HIV anti-infectivity assay, strain not named in Table 2, read-out: Activity Level
# [5] = Human immunodeficiency virus 1, HOS cells, HIV-1 IIIB, 96 h, luciferase, read-out: HOS (3B)
# T1 sequence (P61073 whole entry): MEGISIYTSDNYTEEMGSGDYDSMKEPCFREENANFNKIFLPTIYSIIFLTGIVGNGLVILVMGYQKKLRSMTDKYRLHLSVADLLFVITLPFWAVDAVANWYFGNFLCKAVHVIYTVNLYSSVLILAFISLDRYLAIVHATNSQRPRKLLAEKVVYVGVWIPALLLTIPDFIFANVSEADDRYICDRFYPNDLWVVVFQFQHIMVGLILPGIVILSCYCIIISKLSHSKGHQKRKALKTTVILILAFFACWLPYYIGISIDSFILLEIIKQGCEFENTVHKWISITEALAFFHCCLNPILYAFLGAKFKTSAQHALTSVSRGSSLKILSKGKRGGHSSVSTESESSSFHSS
Compound,"IC50 [1, 4] [nM]",further results
"NCCCCN(Cc1cn2ccccc2n1)C1CCCc2cccnc21 (centres unmarked) [Example 1, N-(Imidazo[1,2-a]pyridin-2-ylmethyl)-N-(5,6,7,8-tetrahydro-8-quinolinyl)-1,4-butanediamine]",< 100,"IC50 [1, 5]: 42 nM; IC50 (CXCR4 receptor): 33.9 nM; IC50 [2]: 79.4 nM; IC50 at 96 h [3]: > 100000 nM"
"N#Cc1ccc2nc(CN(CCCCN)C3CCCc4cccnc43)cn2c1 (centres unmarked) [Example 9, 2-{[(4-Aminobutyl)(5,6,7,8-tetrahydro-8-quinolinyl)amino]methyl}imidazo [1,2-a]pyridine-6-carbonitrile]",100 to 500,"IC50 [1, 5]: 112 nM; IC50 (CXCR4 receptor): 112 nM; IC50 [2]: 372 nM; IC50 at 96 h [3]: > 100000 nM"
"CN1CCN(c2cccc3nc(CN(Cc4ccncc4)[C@H]4CCCc5cccnc54)c(CO)n23)CC1 [Example 36, [5-(4-Methyl-1-piperazinyl)-2-({(4-pyridinylmethyl)[(8S)-5,6,7,8-tetrahydro-8-quinolinyl]amino}methyl)imidazo[1,2-a]pyridin-3-yl]methanol]",< 100,
"NCCCCCN(Cc1cn2ccccc2n1)C1CCCc2cccnc21 (centres unmarked) [Example 43, N-(Imidazo[1,2-a]pyridin-2-ylmethyl)-N-(5,6,7,8-tetrahydro-8-quinolinyl)-1,5-pentanediamine]",100 to 500,
"NC1CCC(N(Cc2cn3ccccc3n2)C2CCCc3cccnc32)CC1 (centres unmarked) [Example 37, N-(Imidazo[1,2-a]pyridin-2-ylmethyl)-N-(5,6,7,8-tetrahydro-8-quinolinyl)-1,4-cyclohexanediamine]",100 to 500,
"NCCCN(Cc1cn2ccccc2n1)C1CCCc2cccnc21 (centres unmarked) [Example 44, N-(Imidazo[1,2-a]pyridin-2-ylmethyl)-N-(5,6,7,8-tetrahydro-8-quinolinyl)-1,3-propanediamine]",500 to 10000,
"CN1CCN(c2cccc3nc(CN(Cc4ccccn4)[C@H]4CCCc5cccnc54)c(CO)n23)CC1 [Example 34, [5-(4-Methyl-1-piperazinyl)-2-({(2-pyridinylmethyl)[(8S)-5,6,7,8-tetrahydro-8-quinolinyl]amino}methyl)imidazo[1,2-a]pyridin-3-yl]methanol]",< 100,

# The next lines start with results.
"IC50 [1, 4] [nM]",Compound,further results
100 to 500,"CN1CCN(c2cccc3nc(CN(Cc4ccccn4)[C@H]4CCCc5cccnc54)cn23)CC1 [Example 30, (8S)-N-{[5-(4-Methyl-1-piperazinyl)imidazo[1,2-a]pyridin-2-yl]methyl}-N-(2-pyridinylmethyl)-5,6,7,8-tetrahydro-8-quinolinamine]",
< 100,"CN1CCN(c2cccc3nc(CN(Cc4cccnc4)[C@H]4CCCc5cccnc54)cn23)CC1 [Example 31, (8S)-N-{[5-(4-Methyl-1-piperazinyl)imidazo[1,2-a]pyridin-2-yl]methyl}-N-(3-pyridinylmethyl)-5,6,7,8-tetrahydro-8-quinolinamine]",
< 100,"CN1CCN(c2cccc3nc(CN(Cc4ccncc4)[C@H]4CCCc5cccnc54)cn23)CC1 [Example 32, (8S)-N-{[5-(4-Methyl-1-piperazinyl)imidazo[1,2-a]pyridin-2-yl]methyl}-N-(4-pyridinylmethyl)-5,6,7,8-tetrahydro-8-quinolinamine]",
< 100,"CN1CCN(c2cccc3nc(CN(Cc4cccnc4)[C@H]4CCCc5cccnc54)c(CO)n23)CC1 [Example 35, [5-(4-Methyl-1-piperazinyl)-2-({(3-pyridinylmethyl)[(8S)-5,6,7,8-tetrahydro-8-quinolinyl]amino}methyl)imidazo[1,2-a]pyridin-3-yl]methanol]",
500 to 10000,"NCCN(Cc1cn2ccccc2n1)C1CCCc2cccnc21 (centres unmarked) [Example 42, N-(Imidazo[1,2-a]pyridin-2-ylmethyl)-N-(5,6,7,8-tetrahydroquinolin-8-yl)ethane-1,2-diamine]",
< 100,"NCCCCN(Cc1nc2ccccn2c1Br)C1CCCc2cccnc21 (centres unmarked) [Example 46, N-[(3-Bromoimidazo[1,2-a]pyridin-2-yl)methyl]-N-(5,6,7,8-tetrahydro-8-quinolinyl)-1,4-butanediamine]",
< 100,"CN1CCN(c2cccc3nc(CN(Cc4ccccc4N(C)C)[C@H]4CCCc5cccnc54)cn23)CC1 [Example 29, (8S)-N-{[2-(Dimethylamino)phenyl]methyl}-N-{[5-(4-methyl-1-piperazinyl)imidazo[1,2-a]pyridin-2-yl]methyl}-5,6,7,8-tetrahydro-8-quinolinamine]",
< 100,"NCCCCN(Cc1nc2ccccn2c1Cl)C1CCCc2cccnc21 (centres unmarked) [Example 45, N-[(3-Chloroimidazo[1,2-a]pyridin-2-yl)methyl]-N-(5,6,7,8-tetrahydro-8-quinolinyl)-1,4-butanediamine]",
